Data set [1] concerns the target recombinant P. falciparum PMX (Plasmodium falciparum, UniProt Q8IAS0). As to the kind of experiment: Recombinant P. falciparum PMX inhibition assay (fluorogenic substrate Rh2N). It is filed as biochemical. The protocol: The fluorescence of this peptide is quenched by the spatial proximity of the DABCYL/EDANS groups in the uncleaved peptide and is increased upon cleavage at the internal F–I bond. […] Control wells contained no inhibitor, and the plate was blanked against the substrate only in DB. […] All experiments were performed in duplicate.

Data set [2] concerns the target PMIV (Plasmodium falciparum, UniProt Q8IM16). As to the kind of experiment: FRET-based PMIV inhibition assay. Format: biochemical, P. falciparum. The protocol:
(§1) A fluorescence resonance energy transfer (FRET)-based assay was performed to assess the ability of the compounds to inhibit PMIV, CatD, and BACE1. Serial dilutions of test compounds were dispensed in a white 96-well plate. […] The mixture was incubated for 20 min at 37 °C. […] IC50 values were calculated with GraphPad Prism 8.0 using the nonlinear regression, variable slope (four parameters). Compounds were tested in triplicate.

Data set [3] concerns the target cathepsin D (CatD) (Homo sapiens, UniProt P07339). As to the kind of experiment: FRET-based CatD inhibition assay (selectivity counter screen). Format: biochemical. The protocol: as §1
Background: The purpose of a counterscreen is to sort out artefacts and off-target activity.

Data set [4] has as its target BACE1 (Homo sapiens, UniProt P56817). As to the kind of experiment: FRET-based BACE1 inhibition assay (selectivity counter screen). It is filed as biochemical. The protocol: as §1
The nature of data set [5]: Liver microsomal metabolic stability. It is filed as in vitro ADME, mouse. The protocol:
Microsomal stability assays are performed as described elsewhere.[41] Test compounds and pooled mouse liver microsomes are incubated in potassium phosphate buffer in the presence of the cofactor NADPH at 37 °C. Reaction mixtures (700 μL) contain a final concentration of 5 μM test compound, 0.05% DMSO, 0.5 mg/mL microsomes, and ∼0.7–0.9 mM NADPH in 100 mM potassium phosphate buffer at pH 7.4. Reactions are terminated by the addition of 100 μL of the reaction mixture to 900 μL of acetonitrile after 0, 5, 15, 30, 45, and 60 min of incubation. Samples were centrifuged, and the resultant supernatant was analyzed by ultra-performance liquid chromatography–tandem mass spectrometry (UPLC-MS/MS). The amount of remaining compound is calculated and compared to the initial amount of test compound (zero time point). Verapamil is used as a positive control, and samples prepared without cofactor NADPH are used as a negative control (0 and 60 min). The in vitro metabolic stability parameters (half-life value (t1/2) and intrinsic clearance value (Clint)) are calculated from the slope of the Ln of concentration remaining vs the time curve.

The nature of data set [6]: Plasma protein binding (rapid equilibrium dialysis). Format: in vitro ADME. To be noted: pH 7.4, mouse plasma, 2 h at 37 °C. The protocol: Plasma protein binding was performed with rapid equilibrium dialysis (RED) device inserts containing a dialysis membrane with a molecular weight cut-off of 8000 Daltons. Inserts were placed in the single-use RED plate without prior preparation.
The test compound at a concentration of 5 μM was added to mouse plasma and dialyzed against phosphate-buffered saline (PBS, pH 7.4) for 2 h at 37 °C. Propranolol hydrochloride was used as a positive control (high PPB), and fluconazole was used as negative control (low PPB). After dialysis, the drug concentration in the buffer and plasma compartments was quantified by liquid chromatography and tandem mass spectrometry (LC-MS/MS) analysis.

Data set [7] can be described thus: Drug blood concentrations in PfalcHuMice during efficacy testing. Format: in vivo. To be noted: for total Cmin: PfalcHuMouse, 40 mg/kg p.o. The protocol:
The concentrations of drugs were measured in samples of peripheral blood (25 μL) taken at different times after the first dosing, mixed with 25 μL of Milli-Q H2O, and immediately frozen on a thermal block at −80 °C. The frozen samples were stored at −80 °C until analysis. Blood from control humanized mice was used for the preparation of standard curves, calibration, and quality control purposes. The drugs were extracted from 10 μL of lysates obtained by protein precipitation of blood samples using standard liquid–liquid extraction methods. The samples were analyzed by LC-MS/MS for quantification in a Waters Micromass UPLC-TQD (Waters, Manchester, U.K.). Blood concentration vs time was analyzed by non-compartmental analysis (NCA) using Phoenix WinNonlin vers.9.2 (Certara) or R or Excel (Microsoft), from which exposure-related values (tmax, Cmax, and AUC0–t) were estimated.

Data set [8] relates to P. falciparum 3D7 parasites. As to the kind of experiment: Microscopy of synchronized P. falciparum cultures treated from ring stage (development and egress). It is filed as cell-based. To be noted: 20 nM.
Description: Asexual blood-stage forms of P. falciparum strains 3D7 and Dd2 were maintained at 37 °C in an atmosphere of 1% O2, 5% CO2, and 94% N2 in human RBCs in RPMI 1640 medium containing AlbuMAX II (Thermo Fisher Scientific) and supplemented with 2 mM L-glutamine. The synchronization of parasite cultures was as described previously.[39] Briefly, this involved isolating mature schizont forms by centrifugation over cushions of 70% (v/v) isotonic Percoll (GE Healthcare, Life Sciences) and then allowing the parasites to undergo rupture in the presence of fresh RBCs for 2 h under gentle shaking conditions (100 rpm). Residual schizonts were then removed through a second Percoll separation, followed by treatment with 5% (w/v) sorbitol to finally obtain a highly synchronized preparation of newly invaded ring-stage parasites.
Growth stage progression and parasite morphology were also monitored by microscopic examination at selected time points using Giemsa-stained thin blood films.

Where two headings read alike, the source gives them in different places.

Chain of recombinant P. falciparum PMX (Q8IAS0 222-573): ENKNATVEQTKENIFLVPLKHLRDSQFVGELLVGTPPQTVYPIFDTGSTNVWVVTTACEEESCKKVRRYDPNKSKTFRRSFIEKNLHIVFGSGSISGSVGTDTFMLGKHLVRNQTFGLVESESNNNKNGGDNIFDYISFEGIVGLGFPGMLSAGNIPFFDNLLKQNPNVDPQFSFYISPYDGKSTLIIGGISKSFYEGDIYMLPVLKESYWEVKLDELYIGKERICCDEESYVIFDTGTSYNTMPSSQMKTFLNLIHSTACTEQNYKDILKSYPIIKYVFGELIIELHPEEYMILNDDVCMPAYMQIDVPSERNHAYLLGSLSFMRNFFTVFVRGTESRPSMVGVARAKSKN
Chain of PMIV (Q8IM16 122-449): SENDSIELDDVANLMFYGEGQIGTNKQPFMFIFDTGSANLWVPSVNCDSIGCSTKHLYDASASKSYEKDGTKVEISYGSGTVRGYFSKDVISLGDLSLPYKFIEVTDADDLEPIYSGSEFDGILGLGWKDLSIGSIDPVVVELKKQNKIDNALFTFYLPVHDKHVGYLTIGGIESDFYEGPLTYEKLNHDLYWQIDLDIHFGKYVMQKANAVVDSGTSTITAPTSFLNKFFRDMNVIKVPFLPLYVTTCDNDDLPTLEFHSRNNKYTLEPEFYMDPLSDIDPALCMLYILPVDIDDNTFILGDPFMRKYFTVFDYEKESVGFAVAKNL
Chain of cathepsin D (CatD) (P07339 65-412): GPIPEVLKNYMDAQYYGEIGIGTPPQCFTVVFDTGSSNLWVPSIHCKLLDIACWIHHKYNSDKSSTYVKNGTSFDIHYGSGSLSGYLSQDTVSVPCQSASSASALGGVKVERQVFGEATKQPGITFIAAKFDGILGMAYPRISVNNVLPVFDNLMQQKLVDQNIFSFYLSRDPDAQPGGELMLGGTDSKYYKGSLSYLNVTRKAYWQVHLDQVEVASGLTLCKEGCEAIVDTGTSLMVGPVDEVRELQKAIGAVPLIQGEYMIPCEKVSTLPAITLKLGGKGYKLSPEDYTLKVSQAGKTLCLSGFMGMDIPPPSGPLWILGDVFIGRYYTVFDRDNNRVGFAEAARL
Chain of BACE1 (P56817 46-501): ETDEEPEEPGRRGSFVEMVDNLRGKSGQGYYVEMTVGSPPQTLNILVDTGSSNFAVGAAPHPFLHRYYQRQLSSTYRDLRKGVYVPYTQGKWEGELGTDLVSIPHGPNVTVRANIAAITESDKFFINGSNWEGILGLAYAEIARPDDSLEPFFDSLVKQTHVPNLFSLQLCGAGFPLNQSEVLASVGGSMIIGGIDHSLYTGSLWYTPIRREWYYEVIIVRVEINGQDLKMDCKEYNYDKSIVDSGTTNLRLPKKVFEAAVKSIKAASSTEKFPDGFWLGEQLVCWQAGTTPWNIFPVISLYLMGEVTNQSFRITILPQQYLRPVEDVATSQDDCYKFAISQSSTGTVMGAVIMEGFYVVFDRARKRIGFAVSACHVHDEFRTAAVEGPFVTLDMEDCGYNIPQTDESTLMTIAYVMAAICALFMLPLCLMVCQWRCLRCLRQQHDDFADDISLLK

The half-life is the time in which the quantity being followed falls by half. By fraction unbound is commonly meant free concentration divided by total concentration. Low readings indicate little free substance, high ones much free substance. On to `CCCN1CCCCCc2cccc(c2)C[C@@H]([C@H](O)CNC(C)(C)c2cccc(OC)c2)NC(=O)c2cccc(c2)C1=O` [7k, (S)-4-((R)-1-Hydroxy-2-((2-(3-methoxyphenyl)propan-2-yl)amino)ethyl)-12-propyl-3,12-diaza-1,6(1,3)-dibenzenacyclotridecaphane-2,13-dione], for which the IC50 amounted to 0.4 ± 0.03 nM in data set [1] (Table 3, read-out: PMX, nM (as listed in Table 3)); 0.4 ± 0.03 nM in data set [1] (recombinant PMX, read-out: PMX, nM (IC50)); 17 ± 2 nM in data set [2] (Table 3, read-out: PMIV, nM (as listed in Table 3)); 17 ± 2 nM in data set [2] (read-out: PMIV, nM (IC50)); 330 ± 20 nM in data set [3]; 2030 ± 100 nM in data set [4]. Further, in data set [1] (compared to 7a), the “improvement of PMX inhibitory potency” value was 10 fold. Also, in data set [2] (compared to 7a), the “improvement of PMIV inhibitory potency” value was 3 fold. For the same compound, in data set [5] (compared to the acyclic analogue 6a), the “improvement of half-life in the microsomal stability test” value is 3 fold. This compound had a half-life at 1 h, 5 μM in data set [5] (pooled liver microsomes, pH 7.4, mouse liver microsomes, 5 μM) of 16.9 min. Further, in data set [5] (pooled liver microsomes, pH 7.4, mouse liver microsomes, 5 μM, read-out: microsomal stability CL(int)), the microsomal CLint at 1 h, 5 μM was found to be 81.9 µL/min/mg. For the same compound, in data set [6], the fraction unbound at 2 h, 5 µM is 0.0027. Besides, the “total Cmin” value came to 32 ng/mL in data set [7] (BID), 85 ng/mL in data set [7] (TID) and 51 ng/mL in data set [7] (UID). In data set [7] (plasma concentration at 71.0, 72.5, 73.0 and 78.0 hours post-treatment), the “pharmacokinetic modeling of concentrations over the period of administration” value is “rapid absorption with no accumulation”. The “intraerythrocytic development of ring-stage parasites to schizont stage” value in data set [8] (44 h) is on record as “Development of ring-stage parasites to the multinucleated schizont stage occurred similarly in all cultures”. Besides, the “schizont rupture (egress) and appearance of new rings” value in data set [8] (44 h and extended incubation) was “schizont rupture and appearance of new rings did not occur”.

The values are drawn from paper PMC10424242, “Macrocyclic Peptidomimetic Plasmepsin X Inhibitors with Potent In Vitro and In Vivo Antimalarial Activity” (Journal of Medicinal Chemistry, 2023).
